Source: US20200048469A1, “POLYMERIC TANDEM DYES HAVING PENDANT NARROW EMISSION ACCEPTOR” (Becton, Dickinson and Company, priority 2018, published 2020)

Tests used:
[1] = Spectroscopic characterization of BODIPY dyes (absorption, emission, FWHM, quantum yield); type: physicochemical; conditions: for Abs Max / Em Max: Table 1, free dye, solvent not stated; for FWHM: Table 1, full width half maximum of emission, free dye
Description: (§1) A variety of BODIPY dyes were prepared and conjugated to polymeric dyes to prepare polymeric tandem dyes. […] The spectroscopic characteristics of particular BODIPY dyes and polymeric tandem dyes including the same were assessed. […] Further details of exemplary BODPY dyes and tandem dyes including the same are provided below in Tables 1 and 2.

[2] = Absorption and emission spectra of free narrow emission dyes in ethanol; type: physicochemical
Description: as §1

In the case of `Cc1cc(C)n2c1C=C1C=CC(CCC(=O)O)=[N+]1[B-]2(F)F` [BODIPY FL], the “Abs Max” value [1] is reported as 505 nm, the “Em Max” value [1] is reported as 513 nm and the FWHM [1] is reported as 21 nm.

For `O=C(O)CCc1ccc2n1[B-](F)(F)[N+]1=C(c3ccccc3)C=CC1=C2` [BODIPY R6G], the “Abs Max” value [1] was 533 nm, the “Em Max” value [1] was 550 nm and the FWHM [1] was 26 nm.

With `CCN1\C(=C/C=C/C=C/C2=[N+](CCCCCC(=O)O)c3ccc4c(S(=O)(=O)O)cc(S(=O)(=O)O)cc4c3C2(C)C)C(C)(C)c2c1ccc1c(S(=O)(=O)[O-])cc(S(=O)(=O)O)cc21` [Cy5.5] the “Dye Abs. max” value ([2]; dye in ethanol) was 673 nm, the “Dye Em. FWHM” value ([2]; dye in ethanol) was 42 nm and the “Dye Em. Max” value ([2]; dye in ethanol) was 691 nm. The “Dye Stokes Shift” value ([2]; dye in ethanol) was 18 nm.

In the case of `CCN1/C(=C/C=C/C=C/C2=[N+](CCCCCC(=O)O)c3ccc(S(=O)(=O)O)cc3C2(C)C)C(C)(C)c2cc(S(=O)(=O)[O-])ccc21` [Cy5], the “Dye Abs. max” value ([2]; dye in ethanol) is reported as 649 nm, the “Dye Em. FWHM” value ([2]; dye in ethanol) is reported as 35 nm and the “Dye Em. Max” value ([2]; dye in ethanol) is reported as 666 nm. For the same molecule, the “Dye Stokes Shift” value ([2]; dye in ethanol) was 17 nm.

With `CCN1C(=CC=CC=CC=CC2=[N+](CCCCCC(=O)O)c3ccc(S(=O)(=O)O)cc3C2(C)C)C(C)(C)c2cc(S(=O)(=O)[O-])ccc21` [Cy7] the “Dye Abs. max” value ([2]; dye in ethanol) was 752 nm, the “Dye Em. FWHM” value ([2]; dye in ethanol) was 52 nm and the “Dye Em. Max” value ([2]; dye in ethanol) was 776 nm. For the same molecule, the “Dye Stokes Shift” value ([2]; dye in ethanol) was 24 nm.

For BODIPY 581/591, the “Abs Max” value [1] was 582 nm, the “Em Max” value [1] was 590 nm and the FWHM [1] was 29 nm.

In the case of BODIPY 630/650, the “Abs Max” value [1] is reported as 630 nm, the “Em Max” value [1] is reported as 641 nm and the FWHM [1] is reported as 30 nm.

For BODIPY 650/665, the “Abs Max” value [1] was 650 nm, the “Em Max” value [1] was 665 nm and the FWHM [1] was 37 nm.

In the case of BODIPY TMR, the “Abs Max” value [1] is reported as 550 nm, the “Em Max” value [1] is reported as 570 nm and the FWHM [1] is reported as 30 nm.

In the case of BODIPY TR, the “Abs Max” value [1] is reported as 590 nm, the “Em Max” value [1] is reported as 620 nm and the FWHM [1] is reported as 35 nm.

With CF594 the “Dye Abs. max” value ([2]; measured in DMAC) was 592 nm, the “Dye Em. FWHM” value ([2]; measured in DMAC) was 37 nm and the “Dye Em. Max” value ([2]; measured in DMAC) was 615 nm. The “Dye Stokes Shift” value ([2]; measured in DMAC) was 23 nm.
